# Assay results taken from patent publication US20260069588A1, “VEPDEGESTRANT FOR USE IN TREATING CANCER” (Arvinas Operation, Inc., priority 2022, published 2026).
# Where two headings read alike, the source gives them in different places. Marks after values point to notes of the source that are not given here.
# What was measured:
# [1] = system: cultured human peripheral blood lymphocytes; experiment: In vitro micronucleus assay; format: cell-based; details: 3+21 hours ± S9; 24+24 hours −S9
# Experimental: Compound A was tested in a GLP-compliant in vitro micronucleus assay.
# [2] = Plasma protein binding, dog; format: in vitro ADME; details: read-out: free fraction
# [3] = pH effect on absorption with famotidine in fasted rats and dogs; format: in vivo; details: spray-dried dispersion
# BCRP = BCRP (Homo sapiens, UniProt Q9UNQ0); experiment: Efflux transporter substrate assessment (inside-out vesicular assay), BCRP; format: in vitro ADME
# Sequence of BCRP (Q9UNQ0 whole entry): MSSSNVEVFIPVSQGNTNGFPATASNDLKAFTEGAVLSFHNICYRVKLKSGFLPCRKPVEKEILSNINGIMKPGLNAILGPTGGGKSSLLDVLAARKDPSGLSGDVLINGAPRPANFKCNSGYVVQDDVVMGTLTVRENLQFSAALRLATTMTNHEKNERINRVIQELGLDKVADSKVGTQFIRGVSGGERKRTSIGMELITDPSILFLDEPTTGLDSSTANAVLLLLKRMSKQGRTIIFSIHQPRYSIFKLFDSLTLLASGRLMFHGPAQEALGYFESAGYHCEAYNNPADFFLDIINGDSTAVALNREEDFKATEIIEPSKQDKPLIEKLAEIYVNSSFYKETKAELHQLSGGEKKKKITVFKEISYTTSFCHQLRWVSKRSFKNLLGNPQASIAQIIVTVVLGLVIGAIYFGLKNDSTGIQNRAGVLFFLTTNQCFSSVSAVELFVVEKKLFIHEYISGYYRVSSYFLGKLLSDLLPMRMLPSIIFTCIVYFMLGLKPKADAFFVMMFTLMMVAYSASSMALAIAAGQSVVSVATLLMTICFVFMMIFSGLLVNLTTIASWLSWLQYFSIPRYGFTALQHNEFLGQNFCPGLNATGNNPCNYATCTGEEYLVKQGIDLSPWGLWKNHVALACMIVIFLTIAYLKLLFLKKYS
# [4] = human, in vivo
# Experimental: Study Design: In the FIH Study: Part A is a Phase I monotherapy dose escalation, and Part B is a Phase 2 monotherapy expansion at 2 RP2D doses (200 mg QD, 500 mg QD).
# [5] = Solubility in phosphate buffer; format: physicochemical; details: aqueous buffer; phosphate buffer at pH 7.4
# hERG channel = hERG channel (Homo sapiens, UniProt Q12809); experiment: hERG channel inhibition; format: biochemical
# Sequence of hERG channel (Q12809 whole entry): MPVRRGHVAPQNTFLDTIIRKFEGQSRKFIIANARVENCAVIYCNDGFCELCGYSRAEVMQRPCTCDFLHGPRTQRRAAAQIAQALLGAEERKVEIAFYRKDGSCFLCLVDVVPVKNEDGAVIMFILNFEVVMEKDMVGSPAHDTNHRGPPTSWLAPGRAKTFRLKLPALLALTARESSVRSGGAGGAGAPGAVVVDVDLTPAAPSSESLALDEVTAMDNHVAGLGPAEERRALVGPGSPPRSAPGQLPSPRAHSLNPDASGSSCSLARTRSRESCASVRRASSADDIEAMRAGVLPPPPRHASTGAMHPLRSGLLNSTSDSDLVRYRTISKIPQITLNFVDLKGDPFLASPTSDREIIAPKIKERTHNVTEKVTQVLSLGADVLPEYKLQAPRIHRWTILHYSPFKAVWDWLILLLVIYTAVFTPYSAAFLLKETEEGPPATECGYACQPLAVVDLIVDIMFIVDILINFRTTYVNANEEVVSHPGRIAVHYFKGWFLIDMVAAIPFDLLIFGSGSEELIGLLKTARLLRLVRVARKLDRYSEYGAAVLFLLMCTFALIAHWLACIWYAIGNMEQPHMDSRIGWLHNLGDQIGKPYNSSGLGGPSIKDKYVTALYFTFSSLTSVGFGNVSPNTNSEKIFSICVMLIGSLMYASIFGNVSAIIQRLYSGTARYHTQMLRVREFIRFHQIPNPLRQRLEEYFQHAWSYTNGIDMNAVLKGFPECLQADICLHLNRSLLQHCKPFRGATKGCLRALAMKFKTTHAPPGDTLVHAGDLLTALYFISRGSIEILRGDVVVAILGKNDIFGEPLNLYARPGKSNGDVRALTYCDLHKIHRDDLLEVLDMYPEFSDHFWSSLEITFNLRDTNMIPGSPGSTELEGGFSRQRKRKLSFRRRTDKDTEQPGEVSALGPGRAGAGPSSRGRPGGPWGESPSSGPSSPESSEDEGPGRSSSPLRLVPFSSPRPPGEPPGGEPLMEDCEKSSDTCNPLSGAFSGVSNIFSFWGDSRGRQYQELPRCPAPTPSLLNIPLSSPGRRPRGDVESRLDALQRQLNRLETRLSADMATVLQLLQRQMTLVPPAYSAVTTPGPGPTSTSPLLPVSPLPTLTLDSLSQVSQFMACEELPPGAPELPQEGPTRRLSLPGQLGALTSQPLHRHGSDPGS
# Experimental: The pivotal nonclinical safety studies were conducted in the US in accordance with GLP regulations per the US 21 CFR Part 58. These include the cardiovascular safety pharmacology study in dogs, the pivotal 28-day and 3-month repeat-dose toxicology studies in rats and dogs, and an in vitro phototoxicity assay. The bacterial reverse mutation assay, in vitro micronucleus assay, and 2 in vitro hERG studies were conducted in the UK in accordance with the UK Good Laboratory Practice Monitoring Authority, MHRA: Good Laboratory Practice Regulations 1999, Statutory Instrument 1999 No. 3106 as amended by the Good Laboratory Practice (Codification Amendments Etc.) Regulations, 2004, Statutory Instrument 2004, No. 994; and the OECD GLP and OECD Principles on Good Laboratory Practice ENV/MC/CHEM (98) 17 (Revised in 1997, Issued January 1998).accordance with the OECD Principles of Good Laboratory Practice and as accepted by Regulatory Authorities throughout the European Union, United States of America (FDA), Japan (MHLW), and other countries that are signatories to the OECD Mutual Acceptance of Data Agreement.
# [6] = MCF7/estradiol xenograft tumor growth inhibition; format: in vivo, mouse; details: in vivo, oral; mouse, 30 mg/kg; read-out: mean AUC0-24
# Experimental: (§1) The 30 mg/kg dose was associated with a mean AUC0-24 of 5,717 ng·h/mL. The tumor ER levels were reduced by ≥94% at all doses compared to mice administered vehicle only (FIG. 3B).
# (§2) The 30 mg/kg dose was associated with a mean AUC0-24 of 5,717 ng·h/mL.
# MCF7/estradiol xenograft = MCF7/estradiol xenograft tumor growth inhibition; format: in vivo, mouse
# Experimental: as §1, §2
# SALL4 = molecular target: T1, SALL4 (Homo sapiens, UniProt Q9UJQ4); experiment: Cereblon neomorphic substrate degradation, SALL4; format: cell-based
# T1 construct: host or cells: two unnamed cell lines
# T1 sequence (Q96SW2 whole entry partner, species assumed): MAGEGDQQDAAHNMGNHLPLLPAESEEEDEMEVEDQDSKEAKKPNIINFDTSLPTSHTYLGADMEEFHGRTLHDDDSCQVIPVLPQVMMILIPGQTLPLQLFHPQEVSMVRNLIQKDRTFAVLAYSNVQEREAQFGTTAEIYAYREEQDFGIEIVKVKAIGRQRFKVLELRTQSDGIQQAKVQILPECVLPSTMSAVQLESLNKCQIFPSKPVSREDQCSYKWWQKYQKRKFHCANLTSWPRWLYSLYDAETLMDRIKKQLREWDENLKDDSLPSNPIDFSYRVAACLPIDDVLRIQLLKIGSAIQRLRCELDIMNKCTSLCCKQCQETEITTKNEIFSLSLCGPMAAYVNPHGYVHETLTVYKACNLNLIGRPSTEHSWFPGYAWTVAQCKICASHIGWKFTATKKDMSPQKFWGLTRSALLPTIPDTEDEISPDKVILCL
# T1 sequence (Q16531 whole entry partner, species assumed): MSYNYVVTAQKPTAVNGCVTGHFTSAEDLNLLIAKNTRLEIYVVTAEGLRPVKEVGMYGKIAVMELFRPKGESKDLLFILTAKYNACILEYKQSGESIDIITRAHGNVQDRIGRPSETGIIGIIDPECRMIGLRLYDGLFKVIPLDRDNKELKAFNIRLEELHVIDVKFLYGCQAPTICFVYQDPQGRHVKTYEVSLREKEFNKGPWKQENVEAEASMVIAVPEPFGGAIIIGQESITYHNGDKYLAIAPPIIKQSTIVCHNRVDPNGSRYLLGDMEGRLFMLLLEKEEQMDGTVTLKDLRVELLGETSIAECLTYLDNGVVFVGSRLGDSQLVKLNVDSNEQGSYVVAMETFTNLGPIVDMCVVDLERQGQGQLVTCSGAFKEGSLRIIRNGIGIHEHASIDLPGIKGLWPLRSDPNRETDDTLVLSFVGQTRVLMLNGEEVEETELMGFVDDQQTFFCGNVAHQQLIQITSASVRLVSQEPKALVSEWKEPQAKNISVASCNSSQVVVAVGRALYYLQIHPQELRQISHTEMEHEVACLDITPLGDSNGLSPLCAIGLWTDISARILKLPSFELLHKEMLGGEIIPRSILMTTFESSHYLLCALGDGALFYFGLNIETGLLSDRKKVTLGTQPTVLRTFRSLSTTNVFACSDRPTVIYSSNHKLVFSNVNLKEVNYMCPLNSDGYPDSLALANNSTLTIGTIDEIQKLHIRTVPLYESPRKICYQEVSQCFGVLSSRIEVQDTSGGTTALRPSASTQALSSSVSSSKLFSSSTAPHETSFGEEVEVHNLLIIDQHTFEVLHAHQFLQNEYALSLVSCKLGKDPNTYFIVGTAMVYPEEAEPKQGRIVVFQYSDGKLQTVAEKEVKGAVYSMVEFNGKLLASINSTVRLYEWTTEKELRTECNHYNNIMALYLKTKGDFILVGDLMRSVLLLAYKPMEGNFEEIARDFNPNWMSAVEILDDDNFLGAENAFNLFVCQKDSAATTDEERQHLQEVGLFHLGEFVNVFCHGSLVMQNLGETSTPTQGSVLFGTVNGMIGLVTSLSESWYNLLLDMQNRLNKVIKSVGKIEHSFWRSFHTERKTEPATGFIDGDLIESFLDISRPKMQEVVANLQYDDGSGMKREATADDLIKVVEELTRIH
# T1 sequence (Q9UJQ4 whole entry, species assumed): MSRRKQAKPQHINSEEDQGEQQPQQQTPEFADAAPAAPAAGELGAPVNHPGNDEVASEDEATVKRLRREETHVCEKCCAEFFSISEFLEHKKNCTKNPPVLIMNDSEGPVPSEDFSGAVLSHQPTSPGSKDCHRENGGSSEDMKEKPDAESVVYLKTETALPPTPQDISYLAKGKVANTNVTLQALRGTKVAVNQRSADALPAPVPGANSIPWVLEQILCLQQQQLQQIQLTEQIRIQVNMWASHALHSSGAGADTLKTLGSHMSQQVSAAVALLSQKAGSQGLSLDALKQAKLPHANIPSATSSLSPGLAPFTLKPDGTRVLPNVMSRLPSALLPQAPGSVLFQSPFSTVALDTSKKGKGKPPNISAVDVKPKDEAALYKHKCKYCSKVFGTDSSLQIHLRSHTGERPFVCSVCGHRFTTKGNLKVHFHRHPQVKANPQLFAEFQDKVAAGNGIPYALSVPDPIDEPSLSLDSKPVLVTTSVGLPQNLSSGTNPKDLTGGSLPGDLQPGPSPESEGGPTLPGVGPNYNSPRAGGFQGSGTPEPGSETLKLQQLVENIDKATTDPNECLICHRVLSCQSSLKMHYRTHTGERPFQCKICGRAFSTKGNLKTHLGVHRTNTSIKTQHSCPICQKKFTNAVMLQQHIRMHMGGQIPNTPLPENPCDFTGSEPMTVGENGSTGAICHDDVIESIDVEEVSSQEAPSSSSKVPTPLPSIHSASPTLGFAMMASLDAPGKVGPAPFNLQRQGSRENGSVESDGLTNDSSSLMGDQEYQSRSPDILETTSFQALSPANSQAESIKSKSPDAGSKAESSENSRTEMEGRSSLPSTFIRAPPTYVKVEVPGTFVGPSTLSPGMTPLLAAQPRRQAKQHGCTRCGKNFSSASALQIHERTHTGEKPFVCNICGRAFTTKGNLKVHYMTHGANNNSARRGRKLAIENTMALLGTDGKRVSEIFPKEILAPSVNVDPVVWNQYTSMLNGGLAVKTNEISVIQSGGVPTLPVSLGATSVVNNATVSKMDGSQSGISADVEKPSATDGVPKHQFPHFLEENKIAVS
# From the text: These drugs bind to cereblon and promote the degradation of novel (neomorphic) substrates.
# MCF7 cells = experiment: Live-cell imaging proliferation, MCF7; format: cell-based; details: Homo sapiens, 144 h; MCF7, up to 6 days
# From the text: Full growth of the cells over this time period is shown by extent of cell confluence with dimethyl sulfoxide (DMSO).
# [7] = 28-day GLP oral toxicity study in rats; details: both sexes, in vivo; rat, 28 days oral
# Experimental: There were no mortalities and no Compound A-related clinical observations or changes in BWs or food consumption, and no FOB observations or ophthalmology findings. Minor clinical pathology changes at the 100 mg/kg/day dose level (minimally higher lymphocyte count in males, minimally lower calcium concentration in both sexes, minimally lower albumin concentration in males, and mildly lower cholesterol concentration in females) were potentially Compound A-related but were reversible and were not considered adverse.
# Compound A-related microscopic findings included increased ovarian cysts in females administered ≥3 mg/kg/day and atrophy of the uterus and of the cervical and vaginal mucosal epithelium in females administered ≥10 mg/kg/day. […] Similar findings had been noted in a few animals in the 7-day study.
# [8] = in vivo
# From the text: TEAE's from participants in both studies have been combined and are described below.
# [9] = system: ER+/HER2− locally advanced/metastatic breast cancer; experiment: FIH Study Part B (VERITAC): clinical benefit rate, PFS; format: in vivo, human
# From the text: The primary endpoint was clinical benefit rate (CBR; rate of confirmed complete or partial response or stable disease ≥24 weeks).
# [10] = Tablet performance in fed and fasted dogs; format: in vivo, dog; details: 50 mg tablet QD, fed vs fasted
# Experimental: For 6 days, dogs received a single 50 mg tablet QD after pre-treatment with pentagastrin. Little accumulation was observed over the course of the study. In addition, exposure in chow-fed dogs was similar to that obtained for solution formulations administered at a similar dose. To reduce the pill burden, a 100 mg tablet was developed and when tested in dogs, similar exposure was observed when dogs were dosing with a 50 mg tablet.
# ER = molecular target: T2, ER (Rattus norvegicus, UniProt P06211); experiment: Uterine wet weight in juvenile rats (ER agonist activity); format: in vivo
# T2 construct: uterine wet weight in juvenile rats; from tissue; host or cells: uterus of juvenile rats, in vivo
# T2 sequence (P06211 whole entry): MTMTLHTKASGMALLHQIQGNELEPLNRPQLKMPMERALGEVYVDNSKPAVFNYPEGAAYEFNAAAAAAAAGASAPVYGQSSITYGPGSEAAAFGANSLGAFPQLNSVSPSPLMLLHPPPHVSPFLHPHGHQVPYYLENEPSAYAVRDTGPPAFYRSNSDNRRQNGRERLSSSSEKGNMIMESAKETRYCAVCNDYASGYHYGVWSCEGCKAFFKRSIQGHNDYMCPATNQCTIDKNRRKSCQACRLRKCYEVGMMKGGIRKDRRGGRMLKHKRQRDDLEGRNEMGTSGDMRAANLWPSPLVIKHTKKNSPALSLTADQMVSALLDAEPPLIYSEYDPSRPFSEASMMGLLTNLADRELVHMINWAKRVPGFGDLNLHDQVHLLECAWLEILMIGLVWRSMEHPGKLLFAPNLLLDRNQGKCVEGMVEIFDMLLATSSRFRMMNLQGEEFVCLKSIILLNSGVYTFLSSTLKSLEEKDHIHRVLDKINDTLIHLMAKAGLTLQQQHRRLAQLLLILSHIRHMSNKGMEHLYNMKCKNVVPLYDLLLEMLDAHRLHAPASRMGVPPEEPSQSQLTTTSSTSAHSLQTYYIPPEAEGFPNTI
# [11] = Plasma protein binding, mouse; format: in vitro ADME; details: read-out: free fraction
structure (smiles),measurement,setting,value
"O=C1CC[C@H](N2Cc3cc(N4CCN(CC5CCN(c6ccc([C@@H]7c8ccc(O)cc8CC[C@@H]7c7ccccc7)cc6)CC5)CC4)ccc3C2=O)C(=O)N1 [Compound A, (S)-3-(5-(4-((1-(4-((1R,2S)-6-hydroxy-2-phenyl-1,2,3,4-tetrahydronaphthalen-1-yl)phenyl)piperidin-4-yl)methyl)piperazin-1-yl)-1-oxoisoindolin-2-yl)piperidine-2,6-dione]",frequency of micronuclei,[1],did not induce biologically relevant increases
same,fraction unbound at 1 μM,[2],0.026
same,pH effect on absorption with famotidine,[3],lowered PK at neutral pH
same,substrate of BCRP,BCRP,unlikely to be a substrate
same,CL/F,[4]; 30 mg,7.4 L/h
same,Rac (AUCtau),[4]; 30 mg,2.6
same,CL/F,[4]; 60 mg,8.2 L/h
same,Rac (AUCtau),[4]; 60 mg,2.6
same,Tmax,[4]; 60 mg,4.2 h
same,CL/F,[4]; 100 mg,11.2 L/h
same,Rac (AUCtau),[4]; 100 mg,2.1
same,CL/F,[4]; 120 mg,8.8 L/h
same,Cmax,[4]; 120 mg,799 ng/mL
same,Rac (AUCtau),[4]; 120 mg,2.2
same,CL/F,[4]; 180 mg,9.4 L/h
same,Cmax,[4]; 180 mg,1062 ng/mL
same,Rac (AUCtau),[4]; 180 mg,2.3
same,Tmax,[4]; 180 mg,5.0 h
same,AUCtau,[4]; 200 mg,15459 ng·h/mL
same,CL/F,[4]; 200 mg,12.9 L/h
same,Cmax,[4]; 200 mg,866 ng/mL
same,Rac (AUCtau),[4]; 200 mg,1.9
same,Tmax,[4]; 200 mg,5.0 h
same,CL/F,[4]; 250 mg,12.2 L/h
same,CL/F,[4]; 360 mg,13.9 L/h
same,Rac (AUCtau),[4]; 360 mg,2.2
same,CL/F,[4]; 500 mg,14.5 L/h
same,Cmax,[4]; 500 mg,1883 ng/mL
same,Rac (AUCtau),[4]; 500 mg,2.2
same,AUCtau,[4]; 700 mg,26572 ^e ng·h/mL
same,Cmax,[4]; 700 mg,1530 ^e ng/mL
same,Rac (AUCtau),[4]; 700 mg,"1, 4 ^g"
same,Tmax,[4]; 700 mg,6.0 g·h
same,solubility,[5],1.5 µg/mL
same,IC50,hERG channel,> 25100 nM
same,unbound Cmax margin to hERG IC50,hERG channel; recommended Phase 3 dose of 200 mg,approximately 170 ×
same,AUC(0-t),[6],5720 ng·h/mL
same,TGI,MCF7/estradiol xenograft; 3 mg/kg PO QD 28 days,85%
same,TGI,MCF7/estradiol xenograft; 10 mg/kg PO QD 28 days,98%
same,TGI,MCF7/estradiol xenograft; 30 mg/kg PO QD 28 days,124%
same,degradation of SALL4,SALL4; a different cell line,no SALL4 degradation
same,degradation of SALL4,SALL4; one cell line,some degradation activity
same,GI50,MCF7 cells,4 nM
same,NOAEL at 28 days,[7],100 mg/kg/day
same,deaths,[8],No deaths were reported
same,CBR,"[9]; 200 mg QD, WT PIK3CA n=20, 95% CI 19-64",40.0%
same,CBR,"[9]; 200 mg QD, all evaluable n=35, Nov. 1, 2022, 95% CI 21-55",37.1%
same,CBR,"[9]; 200 mg QD, mutant ESR1 n=19, Nov. 1, 2022, 95% CI 24-71",47.4%
same,CBR,"[9]; 200 mg QD, mutant PIK3CA n=15, 95% CI 12-62",33.3%
same,CBR,[9]; ITT (n=71),38%
same,CBR,[9]; ITT ESR1m (n=41),51.2%
same,PFS,[9]; ITT ESR1m (n=41),5.7 months
same,CBR,[9]; no prior fulvestrant or chemotherapy in metastatic setting (n=8),62.5%
same,CBR,[9]; patients with WT ESR1 (n=25),20%
same,increase in AUC in fed dogs,[10],3 fold
same,uterine wet weight,ER,did not increase uterine wet weight
same,fraction unbound at 1 μM,[11],0.061
